≈ marks a conversion by molar mass, not a printed value. Calls of active or inactive are those of the source. No cut-off for these calls is given here.
Tests used:
[1] = test system: Penicillium chrysogenum; experiment: Antimicrobial activity against Penicillium chrysogenum at 50 ug/well after 48 hrs by agar well diffusion method; type: functional; details: read-out: DIZ
[2] = test system: Aspergillus niger; experiment: Antimicrobial activity against Aspergillus niger after 24 hrs by broth dilution method; type: functional
[3] = test system: A549; experiment: Cytotoxicity against human A549 cells assessed as reduction in cell viability up to 200 uM after 20 hrs by MTT assay; type: functional, cell-based
[4] = test system: Penicillium chrysogenum; experiment: Antimicrobial activity against Penicillium chrysogenum after 24 hrs; type: functional
[5] = test system: Penicillium chrysogenum; experiment: Antimicrobial activity against Penicillium chrysogenum at 100 ug/well after 48 hrs by agar well diffusion method; type: functional; details: read-out: DIZ
[6] = test system: Staphylococcus aureus; experiment: Antimicrobial activity against Staphylococcus aureus at 25 ug/well after 24 hrs by agar well diffusion method; type: functional; details: read-out: DIZ
[7] = test system: Pseudomonas aeruginosa; experiment: Antimicrobial activity against Pseudomonas aeruginosa ATCC 27853 after 24 hrs by broth dilution method; type: functional; details: ATCC 27853, 24 h
[8] = test system: Escherichia coli; experiment: Antimicrobial activity against Escherichia coli ATCC 25922 after 24 hrs by broth dilution method; type: functional; details: ATCC 25922, 24 h
[9] = test system: Staphylococcus aureus; experiment: Antimicrobial activity against Staphylococcus aureus at 100 ug/well after 24 hrs by agar well diffusion method; type: functional; details: read-out: DIZ
[10] = test system: Pseudomonas aeruginosa; experiment: Antimicrobial activity against Pseudomonas aeruginosa at 25 ug/well after 24 hrs by agar well diffusion method; type: functional; details: read-out: DIZ
[11] = test system: Aspergillus niger; experiment: Antimicrobial activity against Aspergillus niger at 50 ug/well after 48 hrs by agar well diffusion method; type: functional; details: read-out: DIZ
[12] = test system: Escherichia coli; experiment: Antimicrobial activity against Escherichia coli at 100 ug/well after 24 hrs by agar well diffusion method; type: functional; details: read-out: DIZ
[13] = test system: Aspergillus niger; experiment: Antimicrobial activity against Aspergillus niger at 25 ug/well after 48 hrs by agar well diffusion method; type: functional; details: read-out: DIZ
[14] = test system: Pseudomonas aeruginosa; experiment: Antimicrobial activity against Pseudomonas aeruginosa at 50 ug/well after 24 hrs by agar well diffusion method; type: functional; details: read-out: DIZ
[15] = test system: Aspergillus niger; experiment: Antimicrobial activity against Aspergillus niger at 100 ug/well after 48 hrs by agar well diffusion method; type: functional; details: read-out: DIZ
[16] = test system: Pseudomonas aeruginosa; experiment: Antimicrobial activity against Pseudomonas aeruginosa at 100 ug/well after 24 hrs by agar well diffusion method; type: functional; details: read-out: DIZ
[17] = test system: Penicillium chrysogenum; experiment: Antimicrobial activity against Penicillium chrysogenum after 24 hrs by broth dilution method; type: functional
[18] = test system: Escherichia coli; experiment: Antimicrobial activity against Escherichia coli at 50 ug/well after 24 hrs by agar well diffusion method; type: functional; details: read-out: DIZ
[19] = test system: Escherichia coli; experiment: Ratio of MBC to MIC for Escherichia coli ATCC 25922; type: functional
[20] = test system: Pseudomonas aeruginosa; experiment: Antimicrobial activity against Pseudomonas aeruginosa ATCC 27853 after 24 hrs; type: functional; details: ATCC 27853, 24 h
[21] = test system: Penicillium chrysogenum; experiment: Ratio of MBC to MIC for Penicillium chrysogenum; type: functional
[22] = test system: Staphylococcus aureus; experiment: Antimicrobial activity against Staphylococcus aureus ATCC 25923 after 24 hrs; type: functional; details: ATCC 25923, 24 h
[23] = test system: Escherichia coli; experiment: Antimicrobial activity against Escherichia coli ATCC 25922 after 24 hrs; type: functional; details: ATCC 25922, 24 h
[24] = test system: Penicillium chrysogenum; experiment: Antimicrobial activity against Penicillium chrysogenum at 25 ug/well after 48 hrs by agar well diffusion method; type: functional; details: read-out: DIZ
[25] = test system: Aspergillus niger; experiment: Ratio of MBC to MIC for Aspergillus niger; type: functional
[26] = test system: Staphylococcus aureus; experiment: Ratio of MBC to MIC for Staphylococcus aureus ATCC 25923; type: functional
[27] = test system: Escherichia coli; experiment: Antimicrobial activity against Escherichia coli at 25 ug/well after 24 hrs by agar well diffusion method; type: functional; details: read-out: DIZ
[28] = test system: Staphylococcus aureus; experiment: Antimicrobial activity against Staphylococcus aureus ATCC 25923 after 24 hrs by broth dilution method; type: functional; details: ATCC 25923, 24 h
[29] = test system: Aspergillus niger; experiment: Antimicrobial activity against Aspergillus niger after 24 hrs; type: functional
[30] = test system: Staphylococcus aureus; experiment: Antimicrobial activity against Staphylococcus aureus at 50 ug/well after 24 hrs by agar well diffusion method; type: functional; details: read-out: DIZ
[31] = test system: Pseudomonas aeruginosa; experiment: Ratio of MBC to MIC for Pseudomonas aeruginosa ATCC 27853; type: functional

MIC [2]	MIC [7]	MIC [8]	MIC [17]	SMILES	zone of inhibition at 50 µg/disc [1]	Activity [3]	MFC [4]	zone of inhibition at 100 µg/disc [5]	zone of inhibition at 25 µg/disc [6]	zone of inhibition at 100 µg/disc [9]	zone of inhibition at 25 µg/disc [10]	zone of inhibition at 50 µg/disc [11]	zone of inhibition at 100 µg/disc [12]	zone of inhibition at 25 µg/disc [13]	zone of inhibition at 50 µg/disc [14]	zone of inhibition at 100 µg/disc [15]	zone of inhibition at 100 µg/disc [16]	zone of inhibition at 50 µg/disc [18]	MBC [20]	Ratio [21]	also measured
50 µg/mL (≈ 110 µM)	50 µg/mL (≈ 110 µM)	100 µg/mL (≈ 221 µM)	50 µg/mL (≈ 110 µM)	Cc1cc(SCc2nc3ccccc3s2)nc(SCc2nc3ccccc3s2)n1	32 mm	inactive	200 µg/mL (≈ 442 µM)	35 mm	21 mm	25 mm	19 mm	25 mm	30 mm	24 mm	21 mm	28 mm	24 mm	28 mm	200 µg/mL (≈ 442 µM)	>2	Ratio [19]: >2; MBC [22]: 200 µg/mL (≈ 442 µM); MBC [23]: > 200 µg/mL; zone of inhibition at 25 µg/disc [24]: 30 mm; Ratio [25]: >2; Ratio [26]: >2; zone of inhibition at 25 µg/disc [27]: 24 mm; MIC [28]: 50 µg/mL (≈ 110 µM); MFC [29]: > 200 µg/mL; zone of inhibition at 50 µg/disc [30]: 23 mm; Ratio [31]: >2
12.5 µg/mL (≈ 29.9 µM)	12.5 µg/mL (≈ 29.9 µM)	50 µg/mL (≈ 119 µM)	12.5 µg/mL (≈ 29.9 µM)	Cc1cc(SCc2nc3ccccc3[nH]2)nc(SCc2nc3ccccc3[nH]2)n1	35 mm	inactive	25 µg/mL (≈ 59.7 µM)	38 mm	23 mm	29 mm	22 mm	30 mm	35 mm	27 mm	25 mm	32 mm	27 mm	32 mm	100 µg/mL (≈ 239 µM)	2	MBC [22]: 25 µg/mL (≈ 59.7 µM); MBC [23]: 200 µg/mL (≈ 478 µM); zone of inhibition at 25 µg/disc [24]: 33 mm; Ratio [26]: 2; zone of inhibition at 25 µg/disc [27]: 28 mm; MIC [28]: 12.5 µg/mL (≈ 29.9 µM); MFC [29]: 100 µg/mL (≈ 239 µM); zone of inhibition at 50 µg/disc [30]: 26 mm
100 µg/mL (≈ 238 µM)	100 µg/mL (≈ 238 µM)	100 µg/mL (≈ 238 µM)	100 µg/mL (≈ 238 µM)	Cc1cc(SCc2nc3ccccc3o2)nc(SCc2nc3ccccc3o2)n1	30 mm	inactive	> 200 µg/mL	33 mm	20 mm	23 mm	17 mm	22 mm	29 mm	20 mm	20 mm	24 mm	22 mm	24 mm	> 200 µg/mL	>2	Ratio [19]: >2; MBC [22]: > 200 µg/mL; MBC [23]: > 200 µg/mL; zone of inhibition at 25 µg/disc [24]: 28 mm; Ratio [25]: >2; Ratio [26]: >2; zone of inhibition at 25 µg/disc [27]: 21 mm; MIC [28]: 50 µg/mL (≈ 119 µM); MFC [29]: > 200 µg/mL; zone of inhibition at 50 µg/disc [30]: 22 mm; Ratio [31]: >2

Source: ChEMBL document CHEMBL3233012, “Synthesis, antimicrobial and cytotoxic activities of pyrimidinyl benzoxazole, benzothiazole and benzimidazole” (Eur J Med Chem, 2014)
